Data from patent publication US20110319392A1, “Thiazole Sulfonamide And Oxazole Sulfonamide Kinase Inhibitors” (priority 2009, published 2011).
Structures can show the parent of a compound that is named as a salt.

Molecular target: T1, EGFR (Homo sapiens, UniProt P00533)
T1 construct: made in house; host or cells: baculovirus expression system
Assay: EGFR substrate phosphorylation assay (HTRF)
Type: biochemical
How it was run: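 Baculovirus-expressed EGFR (0.8 nM) or ErbB2 (10 nM) in enzyme mix, preincubated 1 h at 20 °C with compound (0.00027–47.6 μM final), then 90 min at 20 °C with substrate mix of 20 μM ATP, 0.8 uM biotinylated Peptide C, MnCl2, MOPS pH 7.5. Phosphotyrosine by HTRF; pIC50 reported.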

T1 sequence (P00533 25-1210): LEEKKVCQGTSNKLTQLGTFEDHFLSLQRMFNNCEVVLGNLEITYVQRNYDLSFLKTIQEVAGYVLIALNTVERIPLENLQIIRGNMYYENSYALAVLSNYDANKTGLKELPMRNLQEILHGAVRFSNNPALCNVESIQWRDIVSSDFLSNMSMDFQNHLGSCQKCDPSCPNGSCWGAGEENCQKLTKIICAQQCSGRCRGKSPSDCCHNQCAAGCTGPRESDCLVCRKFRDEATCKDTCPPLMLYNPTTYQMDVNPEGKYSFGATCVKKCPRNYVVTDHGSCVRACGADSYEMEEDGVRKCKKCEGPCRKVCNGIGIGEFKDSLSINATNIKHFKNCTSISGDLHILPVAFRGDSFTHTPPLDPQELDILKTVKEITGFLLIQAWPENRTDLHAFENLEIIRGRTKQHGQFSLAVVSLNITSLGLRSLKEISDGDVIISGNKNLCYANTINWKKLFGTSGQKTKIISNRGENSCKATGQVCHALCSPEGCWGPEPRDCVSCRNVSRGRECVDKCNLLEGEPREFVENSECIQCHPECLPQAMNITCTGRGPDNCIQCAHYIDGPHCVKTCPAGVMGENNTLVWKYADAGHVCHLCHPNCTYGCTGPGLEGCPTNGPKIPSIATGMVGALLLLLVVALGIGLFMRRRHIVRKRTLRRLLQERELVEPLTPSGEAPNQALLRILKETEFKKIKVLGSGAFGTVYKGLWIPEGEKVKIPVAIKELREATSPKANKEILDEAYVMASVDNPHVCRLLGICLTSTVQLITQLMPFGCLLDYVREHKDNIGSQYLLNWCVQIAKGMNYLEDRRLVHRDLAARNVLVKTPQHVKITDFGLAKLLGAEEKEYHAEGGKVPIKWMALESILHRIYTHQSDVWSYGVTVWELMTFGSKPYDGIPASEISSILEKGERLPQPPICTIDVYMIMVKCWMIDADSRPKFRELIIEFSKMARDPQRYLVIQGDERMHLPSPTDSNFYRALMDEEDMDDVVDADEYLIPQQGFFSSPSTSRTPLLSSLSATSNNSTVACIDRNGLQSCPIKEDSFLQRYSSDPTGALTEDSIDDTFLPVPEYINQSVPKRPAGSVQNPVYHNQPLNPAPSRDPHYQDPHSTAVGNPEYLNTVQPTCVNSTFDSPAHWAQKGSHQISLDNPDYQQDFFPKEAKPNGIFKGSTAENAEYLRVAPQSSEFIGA

Row | SMILES | IC50 [nM]
1 | CCNc1nc(-c2cccc(NS(=O)(=O)c3ccccc3)c2)c(-c2ccnc(Nc3ccc(OCCN4CCCC4)c(F)c3)n2)s1 [Example 1, N-(3-(2-(Ethylamino)-5-{2-[(3-fluoro-4-[[2-(1-pyrrolidinyl)ethyl]oxy}phenyl)amino]-4-pyrimidinyl}-1,3-thiazol-4-yl)phenyl]benzenesulfonamide] | < 100
2 | COCCN1CCN(c2ccc(Nc3nccc(-c4sc(C(C)C)nc4-c4cccc(NS(=O)(=O)c5ccccc5)c4)n3)cn2)CC1 [Example 6, N-[3-(2-(1-Methylethyl)-5-{2-[(6-{4-[2-(methyloxy)ethyl]-1-piperazinyl}-3-pyridinyl)amino]-4-pyrimidinyl}-1,3-thiazol-4-yl)phenyl]benzenesulfonamide] | > 1000
3 | CC(C)c1nc(-c2cccc(NS(=O)(=O)c3ccccc3)c2)c(-c2ccnc(Nc3ccc(N4CCOCC4)nc3)n2)s1 [Example 8, N-{3-[2-(1-Methylethyl)-5-(2-{[6-(4-morpholinyl)-3-pyridinyl]amino}-4-pyrimidinyl)-1,3-thiazol-4-yl]phenyl}benzenesulfonamide hydrochloride] | 100 to 1000
4 | COc1ccc(Nc2nccc(-c3sc(C(C)C)nc3-c3cccc(NS(=O)(=O)c4ccccc4)c3)n2)cc1N1CCN(CCC#N)CC1 [Example 9, N-{3-[5-(2-{[3-[4-(2-Cyanoethyl)-1-piperazinyl]-4-(methyloxy)phenyl]amino}-4-pyrimidinyl)-2-(1-methylethyl)-1,3-thiazol-4-yl]phenyl}benzenesulfonamide] | < 100
5 | CC(=O)N1CCN(c2ccc(Nc3nccc(-c4sc(C(C)C)nc4-c4cccc(NS(=O)(=O)c5ccc(F)cc5)c4)n3)cn2)CC1 [Example 10, N-{3-[5-(2-{[6-(4-Acetyl-1-piperazinyl)-3-pyridinyl]amino}-4-pyrimidinyl)-2-(1-methylethyl)-1,3-thiazol-4-yl]phenyl}-4-fluorobenzenesulfonamide] | > 1000
6 | CC(=O)N1CCN(c2ccc(Nc3nccc(-c4sc(C(C)C)nc4-c4cccc(NS(=O)(=O)c5cccc(F)c5)c4)n3)cn2)CC1 [Example 11, N-{3-[5-(2-{[6-(4-Acetyl-1-piperazinyl)-3-pyridinyl]amino}-4-pyrimidinyl)-2-(1-methylethyl)-1,3-thiazol-4-yl]phenyl}-3-fluorobenzenesulfonamide] | 100 to 1000
7 | CC(=O)N1CCN(c2ccc(Nc3nccc(-c4sc(C(C)C)nc4-c4cccc(NS(=O)(=O)c5ccccc5F)c4)n3)cn2)CC1 [Example 12, N-{3-[5-(2-{[6-(4-Acetyl-1-piperazinyl)-3-pyridinyl]amino}-4-pyrimidinyl)-2-(1-methylethyl)-1,3-thiazol-4-yl]phenyl}-2-fluorobenzenesulfonamide] | < 100
8 | CC(C)c1nc(-c2cccc(NS(=O)(=O)c3c(F)cccc3F)c2)c(-c2ccnc(Nc3ccc(OC4CCN(CCS(C)(=O)=O)CC4)c(F)c3)n2)s1 [Example 13, 2,6-Difluoro-N-{3-[5-(2-{[3-fluoro-4-({1-[2-(methylsulfonyl)ethyl]-4-piperidinyl}oxy)phenyl]amino}-4-pyrimidinyl)-2-(1-methylethyl)-1,3-thiazol-4-yl]phenyl}benzenesulfonamide hydrochloride] | 100 to 1000
9 | CC(C)c1nc(-c2cccc(NS(=O)(=O)c3c(F)cccc3F)c2)c(-c2ccnc(Nc3ccc(N4CCOCC4)c(C(=O)O)c3)n2)s1 [Example 14, 5-({4-[4-(3-{[(2,6-Difluorophenyl)sulfonyl]amino}phenyl)-2-(1-methylethyl)-1,3-thiazol-5-yl]-2-pyrimidinyl}amino)-2-(4-morpholinyl)benzoic acid] | 100 to 1000
10 | CC(C)c1nc(-c2cccc(NS(=O)(=O)c3c(F)cccc3F)c2)c(-c2ccnc(Nc3ccc(N4CCN5CCOC[C@H]5C4)nc3)n2)s1 [Example 15] | 100 to 1000
11 | CC(C)c1nc(-c2cccc(NS(=O)(=O)c3c(F)cccc3F)c2)c(-c2ccnc(Nc3ccc(N4CCN(CCS(C)(=O)=O)CC4)c(F)c3)n2)s1 [Example 16, 2,6-Difluoro-N-{3-[5-{2-[(3-fluoro-4-{4-[2-(methylsulfonyl)ethyl]-1-piperazinyl}phenyl)amino]-4-pyrimidinyl}-2-(1-methylethyl)-1,3-thiazol-4-yl]ohenyl}benzenesulfonamide hydrochloride] | 100 to 1000
12 | CC(C)c1nc(-c2cccc(NS(=O)(=O)c3c(F)cccc3F)c2)c(-c2ccnc(Nc3ccc(N4CCOCC4)nc3)n2)s1 [Example 17, 2,6-Difluoro-N-{3-[2-(1-methylethyl)-5-(2-{[6-(4-morpholinyl)-3-pyridinyl]amino}-4-pyrimidinyl)-1,3-thiazol-4-yl]phenyl}benzenesulfonamide] | 100 to 1000
13 | COc1ccc(Nc2nccc(-c3sc(C(C)C)nc3-c3cccc(NS(=O)(=O)c4c(F)cccc4F)c3)n2)cc1N(C)C [Example 18, N-{3-[5-(2-{[3-(Dimethylamino)-4-(methyloxy)phenyl]amino}-4-pyrimidinyl)-2-(1-methylethyl)-1,3-thiazol-4-yl]phenyl}-2,6-difluorobenzenesulfonamide trifluoroacetate] | < 100
14 | COc1cc(N2CCN(CCS(C)(=O)=O)CC2)c(C)cc1Nc1nccc(-c2sc(C(C)C)nc2-c2cccc(NS(=O)(=O)c3c(F)cccc3F)c2)n1 [Example 19] | < 100
15 | COc1cc(N2CCC(N3CCN(CCS(C)(=O)=O)CC3)CC2)ccc1Nc1nccc(-c2sc(C(C)C)nc2-c2cccc(NS(=O)(=O)c3c(F)cccc3F)c2)n1 [Example 20, 2,6-Difluoro-N-{3-[2-(1-methylethyl)-5-(2-{[2-(methyloxy)-4-(4-{4-[2-(methylsulfonyl)ethyl]-1-piperazinyl}-1-piperidinyl)phenyl]amino}-4-pyrimidinyl)-1,3-thiazol-4-yl]phenyl}benzenesulfonamide] | < 100
16 | O=S(=O)(Nc1cccc(-c2nc(N3CCCC3)sc2-c2ccnc(Nc3ccc(N4CCN(CCF)CC4)c(F)c3)n2)c1)c1c(F)cccc1F [Example 21, 2,6-Difluoro-N-{3-[5-[2-({3-fluoro-4-[4-(2-fluoroethyl)-1-piperazinyl]phenyl}amino)-4-pyrimidinyl]-2-(1-pyrrolidinyl)-1,3-thiazol-4-yl]phenyl}benzenesulfonamide] | < 100
17 | CC(C)c1nc(-c2ccc(F)c(NS(=O)(=O)c3ccccc3F)c2)c(-c2ccnc(Nc3ccc(N4CCN(CCS(C)(=O)=O)CC4)c(F)c3)n2)s1 [Example 22, 2-Fluoro-N-{2-fluoro-5-[5-{2-[(3-fluoro-4-}4-[2-(methylsulfonyl)ethyl]-1-piperazinyl}phenyl)amino]-4-pyrimidinyl}-2-(1-methylethyl)-1,3-thiazol-4-yl]phenyl}benzenesulfonamide hydrochloride] | 100 to 1000
18 | CC(C)c1nc(-c2ccc(F)c(NS(=O)(=O)c3c(F)cccc3F)c2)c(-c2ccnc(Nc3ccc(N4CCOCC4)nc3)n2)s1 [Example 23, 2,6-Difluoro-N-{2-fluoro-5-[2-(1-methylethyl)-5-(2-{[6-(4-morpholinyl)-3-pyridinyl]amino}-4-pyrimidinyl)-1,3-thiazol-4-yl]phenyl}benzenesulfonamide] | 100 to 1000
19 | CC(C)c1nc(-c2ccc(F)c(NS(=O)(=O)c3c(F)cccc3F)c2)c(-c2ccnc(Nc3ccc(N4CCC(C#N)CC4)nc3)n2)s1 [Example 24, N-{5-[5-(2-{[6-(4-Cyano-1-piperidinyl)-3-pyridinyl]amino}-4-pyrimidinyl)-2-(1-methylethyl)-1,3-thiazol-4-yl]-2-fluorophenyl}-2,6-difluorobenzenesulfonamide] | > 1000
